The record followed here is patent US20250051337A1 (priority 2021, published 2025).

One assay deals with STK3 (Homo sapiens (Human), UniProt Q13188). In words: PhosphoSens CSox-based Sensor Assay, STK3. Format: biochemical. Particulars: Km ATP, mean n = 2. As to the method:
(§1) Materials were obtained and prepared according to the assay manufacturer's protocol (Assay Quant Technologies: Marlborough, MA, USA). The 50 μL reaction was initiated by addition of a master mix containing the compounds or vehicle, kinase, and CSox-peptide substrate to a well containing the remaining components. […] Final concentrations were: […] HEPES pH 7.5, 50 μM ATP, 1.0 mM DTT, 0.01% Brij-35, 0.5 mM EGTA, 10 mM MgCl2, 10 μM peptide substrate (AQT0135), and 5.0 nM STK3 (SignalChem #S24-10G) or STK4 (SignalChem #S25-10G) kinases. […] Background-corrected RFU were plotted against time using Prism 8 software. Velocity determinations were calculated for each reaction and plotted versus compound concentration to generate inhibitor curves.
(§2) The PhosphoSens® CSox-based Sensor real-time kinetic assay uses a peptide substrate containing an unnatural amino acid and physiological Mg^2+ levels to quantify substrate phosphorylation using fluorescence.

Another assay concerns the target STK4 (Homo sapiens (Human), UniProt Q13043). The assay can be described thus: PhosphoSens CSox-based Sensor Assay, STK4. Format: biochemical. Particulars: Km ATP, mean n = 2. As to the method: as §1, §2
Another assay addresses kinase domain of STK3 (Homo sapiens (Human), UniProt Q13188). In words: Isothermal titration calorimetry (ITC), STK3. The following applies: 25° C. It counts as binding. How it is done: (§3) All ITC experiments were performed using NanoITC (TA Instruments: New Castle, DE, USA) at 25° C. in a buffer containing 20 mM Tris pH 7.5, 150 mM NaCl, and 0.5 mM TCEP. […] For this protocol the chamber was pre-equilibrated with the test compound, and the kinase domain of STK3 or STK4 was titrated in while continuously measuring the rate of exothermic heat evolution. The heat of binding was integrated, corrected, and fitted to an independent single-binding site model based on the manufacturer's protocol, from which thermodynamic parameters (ΔH and TΔS), equilibrium association and dissociation constants (Ka and KD), and stoichiometry (n) were calculated.
(§4) Isothermal titration calorimetry (ITC) was used to determine the thermodynamic properties of the compounds.
Background: Isothermal titration calorimetry measures the heat released or taken up as one component is titrated into another.

For a further assay, the target named is kinase domain of STK4 (Homo sapiens (Human), UniProt Q13043). In words: Isothermal titration calorimetry (ITC), STK4. Format: binding. The following applies: 25° C. As to the method: as §3, §4

The structures appear in SMILES notation.

Sequence of STK3 (Q13188 whole entry): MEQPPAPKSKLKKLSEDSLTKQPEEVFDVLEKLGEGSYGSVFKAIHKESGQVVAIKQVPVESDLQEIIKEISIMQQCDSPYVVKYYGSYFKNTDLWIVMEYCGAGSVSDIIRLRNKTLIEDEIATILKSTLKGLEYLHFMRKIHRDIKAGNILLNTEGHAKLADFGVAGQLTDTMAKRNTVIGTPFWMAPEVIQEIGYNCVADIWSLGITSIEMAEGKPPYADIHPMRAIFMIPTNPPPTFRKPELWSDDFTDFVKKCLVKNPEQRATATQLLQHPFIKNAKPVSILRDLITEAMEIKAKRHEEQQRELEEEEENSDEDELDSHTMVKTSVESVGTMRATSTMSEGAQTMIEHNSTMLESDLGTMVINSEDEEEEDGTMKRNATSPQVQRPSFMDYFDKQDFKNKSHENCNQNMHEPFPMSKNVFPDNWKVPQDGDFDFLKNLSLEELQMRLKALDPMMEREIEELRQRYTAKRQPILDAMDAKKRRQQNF
Sequence of kinase domain of STK4 (Q13043 30-281): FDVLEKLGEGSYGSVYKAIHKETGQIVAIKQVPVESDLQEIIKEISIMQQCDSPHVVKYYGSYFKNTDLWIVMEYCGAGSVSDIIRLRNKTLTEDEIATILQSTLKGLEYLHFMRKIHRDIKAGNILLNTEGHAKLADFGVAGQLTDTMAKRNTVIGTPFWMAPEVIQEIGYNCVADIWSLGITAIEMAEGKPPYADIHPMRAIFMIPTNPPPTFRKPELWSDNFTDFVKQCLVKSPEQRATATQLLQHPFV
Sequence of STK4 (Q13043 whole entry, the tested form may be a part): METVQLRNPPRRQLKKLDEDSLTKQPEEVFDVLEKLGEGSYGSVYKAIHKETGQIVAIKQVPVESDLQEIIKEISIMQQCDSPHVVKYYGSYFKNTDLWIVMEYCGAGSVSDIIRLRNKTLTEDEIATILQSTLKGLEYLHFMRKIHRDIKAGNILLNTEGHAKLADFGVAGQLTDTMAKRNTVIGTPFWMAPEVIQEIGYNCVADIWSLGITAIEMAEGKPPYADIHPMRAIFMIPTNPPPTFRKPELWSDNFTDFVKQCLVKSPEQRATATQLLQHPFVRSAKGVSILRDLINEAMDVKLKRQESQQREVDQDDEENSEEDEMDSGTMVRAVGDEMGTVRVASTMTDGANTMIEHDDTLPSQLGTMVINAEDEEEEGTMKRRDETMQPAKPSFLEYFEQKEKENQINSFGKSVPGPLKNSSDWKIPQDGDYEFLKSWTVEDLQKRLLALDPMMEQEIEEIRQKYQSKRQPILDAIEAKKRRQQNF
Sequence of kinase domain of STK3 (Q13188 27-278): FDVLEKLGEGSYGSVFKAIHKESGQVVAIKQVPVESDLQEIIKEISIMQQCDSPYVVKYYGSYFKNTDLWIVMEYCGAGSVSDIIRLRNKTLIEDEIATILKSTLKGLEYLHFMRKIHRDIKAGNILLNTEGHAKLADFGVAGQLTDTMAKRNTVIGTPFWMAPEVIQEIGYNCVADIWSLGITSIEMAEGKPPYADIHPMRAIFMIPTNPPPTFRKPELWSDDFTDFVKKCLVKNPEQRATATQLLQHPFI

Broadly, the Ki is a dissociation constant, usually derived from enzyme kinetics or from competition with a known ligand. A high value points to weaker binding. Take `Clc1cccc(-c2c[nH]c3nccc(N4CCOCC4)c23)c1` [Compound 23, 4-(3-(3-chlorophenyl)-1H-pyrrolo[2,3-b]pyridin-4-yl)morpholine]: the Ki amounted to 209 nM at STK3 and 33 nM on STK4. At kinase domain of STK3, the “ITC-KD, STK3” value was “low nanomolar affinities”. On kinase domain of STK4, the “ITC-KD, STK4” value is “low nanomolar affinities”.
For `Clc1cccc(-c2c[nH]c3ncnc(N4CCOCC4)c23)c1` [Compound 6, 4-(5-(3-Chlorophenyl)-7H-pyrrolo[2,3-d]pyrimidin-4-yl)morpholine], affinity at STK4 was put at a Ki of 52 nM. The “ITC-KD, STK4” value on kinase domain of STK4 is reported as “low nanomolar affinities”.
Turning to `NC(=O)c1cccc(-c2c[nH]c3ncnc(N4CCOCC4)c23)c1` [Compound 11, 3-(4-Morpholino-7H-pyrrolo[2,3-d]pyrimidin-5-yl)benzamide], the inhibitory constant (Ki) at STK3 is 145 nM.
